In paper PMC11790914, “Chemogenomics for steroid hormone receptors (NR3)” (Communications Chemistry, 2025):
Values joined by “and” are separate entries in the source; they are usually repeats but may differ in a detail not shown here. Equal values may be shown once.

Columns and labels:
[1] = test system: HEK293T cells; test: Cytotoxicity: necrosis induction (red fluorescent dye for permeable plasma membranes); type: cell-based; settings: 1 µM, 24 h, necrotic cell count normalized to 0.1% DMSO, single replicates;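 further: compounds applied in DMEM high glucose with 0.1% FCS and 0.1% DMSO, necrotic HEK293T cells counted by red staining of cells whose plasma membranes had become permeable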
[2] = biological target: T1, ABL1 (Homo sapiens, UniProt P00519); test: Liability panel screening by DSF: ABL1; type: binding; settings: DSF, 20 µM, n=2; read-out: Mean ΔTM ABL1
T1 construct: made in house
How it was run: (§1)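 Thermal shift: in-house recombinant protein at 2 µM in 10 mM HEPES pH 7.5 with 500 mM NaCl, SYPRO Orange 1:1000, heated at 3 °C/min to 85 °C in technical duplicates. Tm is the Boltzmann inflection point, reported as ∆Tm in K.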

[3] = biological target: T2, AURKA (Homo sapiens, UniProt O14965); test: Liability panel screening by DSF: AURKA; type: binding; settings: DSF, 20 µM, n=2; read-out: Mean ΔTM AURKA
T2 construct: made in house
T2 sequence (O14965 1-403): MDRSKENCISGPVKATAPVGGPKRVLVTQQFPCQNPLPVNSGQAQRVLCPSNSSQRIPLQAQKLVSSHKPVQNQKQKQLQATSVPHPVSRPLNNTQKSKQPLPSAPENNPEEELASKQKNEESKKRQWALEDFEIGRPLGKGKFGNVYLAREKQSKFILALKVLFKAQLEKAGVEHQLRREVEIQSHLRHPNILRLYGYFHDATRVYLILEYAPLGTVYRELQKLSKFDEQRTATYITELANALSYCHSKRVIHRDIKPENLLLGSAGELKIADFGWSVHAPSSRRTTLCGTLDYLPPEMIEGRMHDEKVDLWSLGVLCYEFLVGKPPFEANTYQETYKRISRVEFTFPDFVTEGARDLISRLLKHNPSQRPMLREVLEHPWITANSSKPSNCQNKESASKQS
How it was run: as §1

[4] = biological target: T3, CDK2 (Homo sapiens, UniProt P24941); test: Liability panel screening by DSF: CDK2; type: binding; settings: DSF, 20 µM, n=2; read-out: Mean ΔTM CDK2
T3 construct: made in house
How it was run: as §1

[5] = biological target: T4, FGFR3 (Homo sapiens, UniProt P22607); test: Liability panel screening by DSF: FGFR3; type: binding; settings: DSF, 20 µM, n=2; read-out: Mean ΔTM FGFR3
T4 construct: made in house
How it was run: as §1

[6] = biological target: T5, GSK3B (Homo sapiens, UniProt P49841); test: Liability panel screening by DSF: GSK3B; type: binding; settings: DSF, 20 µM, n=2; read-out: Mean ΔTM GSK3B
T5 construct: made in house

[7] = biological target: T6, BRD4 (Homo sapiens, UniProt O60885); test: Liability panel screening by DSF: BRD4; type: binding; settings: DSF, 20 µM, n=2; read-out: Mean ΔTM BRD4
T6 construct: This panel comprised ten highly ligandable kinases and bromodomains; made in house
How it was run: as §1

[8] = biological target: T7, BRPF1 (Homo sapiens, UniProt P55201); test: Liability panel screening by DSF: BRPF1; type: binding; settings: DSF, 20 µM, n=2; read-out: Mean ΔTM BRPF1
T7 construct: This panel comprised ten highly ligandable kinases and bromodomains; made in house
T7 sequence (P55201 628-732 limits assumed): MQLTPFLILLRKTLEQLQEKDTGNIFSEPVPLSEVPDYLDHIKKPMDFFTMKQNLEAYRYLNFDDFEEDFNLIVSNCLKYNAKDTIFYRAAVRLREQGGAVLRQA
How it was run: as §1

[9] = biological target: T8, CSNK1D (Homo sapiens, UniProt P48730); test: Liability panel screening by DSF: CSNK1D; type: binding; settings: DSF, 20 µM, n=2; read-out: Mean ΔTM CSNK1D
T8 construct: made in house
How it was run: as §1

[10] = biological target: T9, MAPK1 (Homo sapiens, UniProt P28482); test: Liability panel screening by DSF: MAPK1; type: binding; settings: DSF, 20 µM, n=2; read-out: Mean ΔTM MAPK1
T9 construct: made in house
How it was run: as §1

[11] = biological target: T10, TRIM24 (Homo sapiens, UniProt O15164); test: Liability panel screening by DSF: TRIM24; type: binding; settings: DSF, 20 µM, n=2; read-out: Mean ΔTM TRIM24
T10 construct: This panel comprised ten highly ligandable kinases and bromodomains; made in house
T10 sequence (O15164 899-1004 limits assumed): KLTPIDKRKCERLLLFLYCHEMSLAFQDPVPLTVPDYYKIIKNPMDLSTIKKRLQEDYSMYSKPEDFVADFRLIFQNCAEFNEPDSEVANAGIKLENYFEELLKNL
How it was run: as §1

[12] = test system: NF-κB activity in HEK293 NF-κB reporter cells; test: NF-kB activity assay (GFP reporter, ionomycin/PMA); type: cell-based; settings: for Mean NFκB response: n=3; for NF-κB activity (inflammatory response to ionomycin/PMA): HEK293 NF-κB reporter cells, compounds at recommended concentrations, imaged over 24 h, n = 3
How it was run: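 Reporter readout: GFP-expressing cells normalized to confluence, imaged every 90 min across 24 h after ionomycin (100 ng/mL)/PMA (10 ng/mL) stimulation of HEK293 cells pre-treated 4 h with compound (0.1% DMSO); triplicate independent experiments.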

[13] = test system: ATF6 activity in Hela ATF6 reporter cells; test: Endoplasmic reticulum stress assay (ATF6 Renilla luciferase reporter, tunicamycin); type: cell-based; settings: Homo sapiens, HeLa, 1 µM, single replicates n=1 to n=5; read-out: ER stress [rel. ATF6 activity]
How it was run: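 ER stress was induced by 100 ng/mL tunicamycin added 4 h after compound (0.1% DMSO) to HeLa ATF6 reporter cells. After 18 h more, Renilla luciferase signal was read and expressed relative to DMSO control, n=5 biological replicates.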

[14] = test system: NR3A1 (ERα); settings: cited from earlier work
[15] = test system: NR3A2 (ERβ); settings: cited from earlier work
[16] = test system: HEK293T cells; test: Cytotoxicity: apoptosis induction (caspase-3/7 DEVD fluorogenic DNA dye); settings: 1 µM; HEK293T, 24 h; apoptotic cell count normalized to 0.1% DMSO; single replicates
[17] = known off-target outside the NR family at the recommended concentration; ref Supplementary Table 1 (superscript references); cited from earlier work
[18] = test system: HEK293T cells; test: Cytotoxicity: metabolic activity (WST-8 / CCK-8 assay); settings: 1 µM; HEK293T, 24 h; WST-8; normalized to 0.1% DMSO; single replicates
[19] = test system: HEK293T cells; test: Cytotoxicity: growth-rate (change in confluence over 24 h); settings: 1 µM, normalized to 0.1% DMSO control, single replicates (n=1...)
Description: Cells were incubated with the test compounds at the indicated concentrations solubilized with 0.1% DMSO for 24 h. Growth-rate was determined based on the change in confluence over 24 h normalized to the change in confluence of cells treated with the 0.1% DMSO control (n = 10). Metabolic activity was determined with a water-soluble tetrazolium-8 (WST-8) assay (n = 8) after 24 h treatment. Apoptotic cells were detected with a fluorogenic DNA dye coupled to the caspase-3/7 recognition sequence (DEVD) after 24 h treatment and the apoptotic cell count was normalized to 0.1% DMSO treated cells (n = 6).
HEK293T cells (German Collection of Microorganisms and Cell Culture GmbH, DSMZ; #ACC305) were cultured in DMEM high glucose, supplemented with 10% fetal calf serum (FCS), sodium pyruvate (1 mM), penicillin (100 µ/mL) and streptomycin (100 µg/mL) at 37 °C and 5% (v/v) CO2, and seeded in pre-coated (10 µg/mL collagen G solution (Merck KgaA; #L7213) for 30 min at 37 °C) 96-well plates (2 × 10^5 cells per well). After 24 h, the cells were treated with the respective NR3 CG compound candidate at the recommended concentration, bexarotene (100 µM) or doxorubicin (30 µM) as positive controls in DMEM high glucose supplemented with 0.1% FCS, penicillin (100 µ/mL), streptomycin (100 µg/mL) and 0.1% DMSO, or 0.1% DMSO alone as an untreated control. Each sample was prepared in at least four biologically independent replicates. […] Thereafter, the medium was aspirated and the cells were incubated for 3 h with 90 µL DMEM high glucose supplemented with 0.2% FCS, penicillin (100 µ/mL) and streptomycin (100 µg/mL) and additionally containing 10 µL Cell Counting Kit 8 solution (CCK-8; MedChemExpress, Monmouth Junction, New York, USA; #HY-K0301), and absorbance was measured at 1 h, 2 h and 3 h of incubation at 450 nm on a Tecan Spark Cyto to assess metabolic activity of the cells. Before drug administration, after the first medium exchange, 24 h after drug administration, and after fluorescence imaging cell confluence was assessed using the Tecan Spark Cyto, to account for changes in cell confluence due to drug administration and cell handling. Compound effects on cell confluence, apoptosis, metabolic activity and necrosis were normalized to the vehicle control of each biological replicate individually.

T9 sequence (P28482 whole entry, species assumed): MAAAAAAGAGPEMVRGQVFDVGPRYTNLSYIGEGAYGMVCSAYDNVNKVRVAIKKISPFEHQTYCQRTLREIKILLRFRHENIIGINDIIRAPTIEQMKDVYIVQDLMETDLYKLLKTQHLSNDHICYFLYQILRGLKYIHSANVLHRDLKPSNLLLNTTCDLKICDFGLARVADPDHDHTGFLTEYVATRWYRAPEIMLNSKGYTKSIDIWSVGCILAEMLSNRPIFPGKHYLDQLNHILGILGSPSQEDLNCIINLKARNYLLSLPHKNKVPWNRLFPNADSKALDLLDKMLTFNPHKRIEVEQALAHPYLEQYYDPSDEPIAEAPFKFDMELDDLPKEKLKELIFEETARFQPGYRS
T8 sequence (P48730 whole entry, species assumed): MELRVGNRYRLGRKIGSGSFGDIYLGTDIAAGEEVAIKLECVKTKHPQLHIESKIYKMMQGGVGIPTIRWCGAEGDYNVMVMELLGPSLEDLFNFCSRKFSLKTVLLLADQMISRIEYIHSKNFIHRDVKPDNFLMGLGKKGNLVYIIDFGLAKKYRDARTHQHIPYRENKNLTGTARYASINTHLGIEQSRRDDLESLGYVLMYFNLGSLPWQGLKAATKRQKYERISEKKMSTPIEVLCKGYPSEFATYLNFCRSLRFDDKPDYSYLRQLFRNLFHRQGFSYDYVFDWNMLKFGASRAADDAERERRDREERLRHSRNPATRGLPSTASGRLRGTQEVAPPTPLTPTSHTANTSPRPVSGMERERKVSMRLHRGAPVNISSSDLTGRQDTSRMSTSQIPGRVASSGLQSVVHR
T4 sequence (P22607 23-806, species assumed): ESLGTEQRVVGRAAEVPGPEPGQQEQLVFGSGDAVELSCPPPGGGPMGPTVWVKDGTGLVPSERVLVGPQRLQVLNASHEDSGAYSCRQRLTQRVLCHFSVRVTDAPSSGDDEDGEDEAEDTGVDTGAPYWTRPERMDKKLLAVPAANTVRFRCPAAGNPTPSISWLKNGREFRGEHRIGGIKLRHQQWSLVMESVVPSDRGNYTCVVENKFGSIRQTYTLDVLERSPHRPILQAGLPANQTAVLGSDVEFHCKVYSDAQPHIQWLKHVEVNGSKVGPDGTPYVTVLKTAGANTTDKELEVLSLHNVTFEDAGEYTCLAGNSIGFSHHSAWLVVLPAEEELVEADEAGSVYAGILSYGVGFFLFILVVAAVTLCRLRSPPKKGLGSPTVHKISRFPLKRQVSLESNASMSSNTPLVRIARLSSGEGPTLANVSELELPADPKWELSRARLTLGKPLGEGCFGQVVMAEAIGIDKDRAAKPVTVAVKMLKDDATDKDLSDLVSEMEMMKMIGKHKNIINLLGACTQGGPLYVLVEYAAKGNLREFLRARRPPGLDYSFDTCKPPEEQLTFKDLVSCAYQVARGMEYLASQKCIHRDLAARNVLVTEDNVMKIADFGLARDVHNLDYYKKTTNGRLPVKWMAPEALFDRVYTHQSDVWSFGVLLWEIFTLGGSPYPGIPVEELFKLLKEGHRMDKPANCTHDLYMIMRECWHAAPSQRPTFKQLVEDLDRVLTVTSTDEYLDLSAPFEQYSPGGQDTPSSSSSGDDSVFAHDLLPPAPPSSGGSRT
T1 sequence (P00519 whole entry, species assumed): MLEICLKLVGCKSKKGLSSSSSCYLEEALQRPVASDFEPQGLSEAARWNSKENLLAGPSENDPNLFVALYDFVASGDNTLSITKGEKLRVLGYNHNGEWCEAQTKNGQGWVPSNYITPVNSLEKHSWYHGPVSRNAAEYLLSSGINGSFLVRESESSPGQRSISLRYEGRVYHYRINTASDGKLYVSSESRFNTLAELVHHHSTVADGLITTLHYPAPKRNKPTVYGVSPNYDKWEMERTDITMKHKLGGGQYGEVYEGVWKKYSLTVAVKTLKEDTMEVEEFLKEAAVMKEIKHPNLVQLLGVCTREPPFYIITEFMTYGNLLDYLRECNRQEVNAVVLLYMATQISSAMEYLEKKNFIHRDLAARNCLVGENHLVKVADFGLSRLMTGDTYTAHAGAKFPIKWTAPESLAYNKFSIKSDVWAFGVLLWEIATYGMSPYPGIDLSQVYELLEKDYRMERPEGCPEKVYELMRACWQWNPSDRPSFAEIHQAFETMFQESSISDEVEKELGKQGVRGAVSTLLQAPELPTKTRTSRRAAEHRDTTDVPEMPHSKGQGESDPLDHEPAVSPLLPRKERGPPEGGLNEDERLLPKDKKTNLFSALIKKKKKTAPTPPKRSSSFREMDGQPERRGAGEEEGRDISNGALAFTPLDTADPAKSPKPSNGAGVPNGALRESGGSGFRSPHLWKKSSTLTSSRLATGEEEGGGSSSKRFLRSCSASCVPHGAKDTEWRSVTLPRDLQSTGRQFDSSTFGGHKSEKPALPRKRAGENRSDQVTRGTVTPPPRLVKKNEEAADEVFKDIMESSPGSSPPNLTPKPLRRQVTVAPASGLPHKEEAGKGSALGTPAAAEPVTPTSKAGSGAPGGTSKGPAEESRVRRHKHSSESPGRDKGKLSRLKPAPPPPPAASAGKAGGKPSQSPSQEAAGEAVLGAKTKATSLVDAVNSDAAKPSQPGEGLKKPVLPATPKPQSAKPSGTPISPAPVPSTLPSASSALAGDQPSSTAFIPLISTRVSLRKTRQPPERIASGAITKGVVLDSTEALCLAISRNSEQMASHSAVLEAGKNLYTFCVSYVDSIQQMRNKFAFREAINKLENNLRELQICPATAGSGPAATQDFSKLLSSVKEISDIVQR
T5 sequence (P49841 whole entry, species assumed): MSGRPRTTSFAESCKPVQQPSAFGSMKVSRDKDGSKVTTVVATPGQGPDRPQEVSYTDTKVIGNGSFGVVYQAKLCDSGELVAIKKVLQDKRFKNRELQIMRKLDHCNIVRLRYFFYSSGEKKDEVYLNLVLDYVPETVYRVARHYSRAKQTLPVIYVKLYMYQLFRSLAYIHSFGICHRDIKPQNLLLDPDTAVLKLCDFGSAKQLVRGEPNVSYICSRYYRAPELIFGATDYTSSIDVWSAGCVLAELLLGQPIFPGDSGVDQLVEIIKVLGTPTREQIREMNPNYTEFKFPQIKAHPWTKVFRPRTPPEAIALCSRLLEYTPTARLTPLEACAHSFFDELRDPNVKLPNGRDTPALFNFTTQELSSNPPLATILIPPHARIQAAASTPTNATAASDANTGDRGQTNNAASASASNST

| ΔTm at 20 µM [2] [°C] | ΔTm at 20 µM [3] [°C] | ΔTm at 20 µM [4] [°C] | ΔTm at 20 µM [5] [°C] | ΔTm at 20 µM [6] [°C] | ΔTm at 20 µM [7] [°C] | ΔTm at 20 µM [8] [°C] | ΔTm at 20 µM [9] [°C] | ΔTm at 20 µM [10] [°C] | SMILES | Necrosis induction [NI] [1] | Mean NFκB response ([12]; 1 µM, 1,5 h) | Mean NFκB response ([12]; 1 µM, 4,5 h) | Mean NFκB response ([12]; 1 µM, 7,5 h) | Mean NFκB response ([12]; 1 µM, 10,5 h) | Mean NFκB response ([12]; 1 µM, 13,5 h) | Mean NFκB response ([12]; 1 µM, 16,6 h) | Mean NFκB response ([12]; 1 µM, 19,5 h) | Mean NFκB response ([12]; 1 µM, 22,5 h) | Mean NFκB response ([12]; 1 µM, 3 h) | Mean NFκB response ([12]; 1 µM, 6 h) | also measured |
| --- | --- | --- | --- | --- | --- | --- | --- | --- | --- | --- | --- | --- | --- | --- | --- | --- | --- | --- | --- | --- | --- |
| -0.21 | 0.09 | -0.64 | -0.69 | 0.0162 | 0.43 | -0.07 | 0.42 | 0.08 | Cc1c(-c2ccc(O)cc2)n(Cc2ccc(OCCN3CCCCCC3)cc2)c2ccc(O)cc12 [Bazedoxifene] | 1.13 and 0.86 and 0.78 and 1.09 | 2824.44 GFP+-cells/confluence ∙ 1000 | 3791.70 GFP+-cells/confluence ∙ 1000 | 7416.63 GFP+-cells/confluence ∙ 1000 | 14689.03 GFP+-cells/confluence ∙ 1000 | 19525.92 GFP+-cells/confluence ∙ 1000 | 23266.53 GFP+-cells/confluence ∙ 1000 | 26260.00 GFP+-cells/confluence ∙ 1000 | 28446.67 GFP+-cells/confluence ∙ 1000 | 3117.94 GFP+-cells/confluence ∙ 1000 | 5066.30 GFP+-cells/confluence ∙ 1000 | ΔTm at 20 µM [11]: -2.05 °C; Mean NFκB response ([12]; 1 µM, 9 h): 11293.98 GFP+-cells/confluence ∙ 1000; Mean NFκB response ([12]; 1 µM, 12 h): 17230.27 GFP+-cells/confluence ∙ 1000; Mean NFκB response ([12]; 1 µM, 15 h): 21680.82 GFP+-cells/confluence ∙ 1000; Mean NFκB response ([12]; 1 µM, 18 h): 24611.25 GFP+-cells/confluence ∙ 1000; Mean NFκB response ([12]; 1 µM, 21 h): 27073.33 GFP+-cells/confluence ∙ 1000; Mean NFκB response ([12]; 1 µM, 24 h): 29033.33 GFP+-cells/confluence ∙ 1000; NF-κB activity (inflammatory response to ionomycin/PMA) [12]: reducing the inflammatory response; activity at 1 µM [13]: 100%; EC50 ([14]; read-out: Potency [nM] EC50, NR3A1 (ERα)): 26 ± 14 nM; EC50 ([15]; (lit.), ref Supplementary Table 1, read-out: Potency [nM] EC50, NR3A2 (ERβ)): 99 ± 53 nM; Apoptosis induction [AI] [16]: 0.65 and 1.17 and 0.76 and 1.01 and 0.89 and 1.49 |
| -4.09 | -0.16 | 0 | -3.24 | 0.72 | -2.93 | 0 | -4.77 | -12 | C[C@]12CC[C@@H]3c4ccc(O)cc4C[C@@H](CCCCCCCCC[S+]([O-])CCCC(F)(F)C(F)(F)F)[C@H]3[C@@H]1CC[C@@H]2O (stereo partly shown) [Fulvestrant] | 0.62 and 0.70 and 0.56 and 0.98 | 2679.37 GFP+-cells/confluence ∙ 1000 | 3148.36 GFP+-cells/confluence ∙ 1000 | 4671.22 GFP+-cells/confluence ∙ 1000 | 6295.62 GFP+-cells/confluence ∙ 1000 | 7325.42 GFP+-cells/confluence ∙ 1000 | 8293.33 GFP+-cells/confluence ∙ 1000 | 8696.67 GFP+-cells/confluence ∙ 1000 | 9540.00 GFP+-cells/confluence ∙ 1000 | 2744.06 GFP+-cells/confluence ∙ 1000 | 3642.03 GFP+-cells/confluence ∙ 1000 | Mean NFκB response ([12]; 1 µM, 9 h): 5613.40 GFP+-cells/confluence ∙ 1000; Mean NFκB response ([12]; 1 µM, 12 h): 7011.92 GFP+-cells/confluence ∙ 1000; Mean NFκB response ([12]; 1 µM, 15 h): 8097.95 GFP+-cells/confluence ∙ 1000; Mean NFκB response ([12]; 1 µM, 18 h): 8436.67 GFP+-cells/confluence ∙ 1000; Mean NFκB response ([12]; 1 µM, 21 h): 9413.33 GFP+-cells/confluence ∙ 1000; Mean NFκB response ([12]; 1 µM, 24 h): 10080.00 GFP+-cells/confluence ∙ 1000; NF-κB activity (inflammatory response to ionomycin/PMA) [12]: reducing the inflammatory response; activity at 1 µM [13]: 89%; rel. activity from literature, NR3A1 (ERα): % ERα remaining ([14]; ERα remaining (degrader), ref Supplementary Table 1): 18%; IC50 ([15]; (lit.), ref Supplementary Table 1, read-out: Potency [nM] IC50, NR3A2 (ERβ)): 4 nM; rel. activity from literature, NR3A2 (ERβ): % rem. act. of estradiol ([15]; rem. act. of estradiol): 9%; Other off-target at recom. conc. [17]: sEH; Metabolic activity [MA] [18]: 0.95 (2×) and 1.00 and 1.04 and 1.03 and 0.99 and 1.20 (2×); Growth rate [GR] [19]: 0.67 and 2.29 and 0.97 and 0.95 and 0.64 and 0.78 and 0.76 and 0.84 and 1.55 and 3.07; Apoptosis induction [AI] [16]: 0.62 (2×) and 0.98 and 0.59 and 0.64 and 0.41 |
